From US12673954B2 (BRISTOL-MYERS SQUIBB COMPANY, priority 2021, dated 2026)
Where two headings read alike, the source gives them in different places.

How the values were obtained:
[1] = test system: IRF pathway, THP1-Dual™ cells; assay: STING reporter assay in THP1-Dual cells, IRF pathway (Lucia luciferase, QUANTI-Luc); type: cell-based, human; details: THP1-Dual cells, 10% human plasma, 20 hours, Lucia luciferase, 100% activation = 100 μM cGAMP, read-out: IRF (EC50 μM)
Summary of the method: (§1)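 THP-1-derived dual-reporter cells treated with serially diluted compounds (final top concentration 100 μM) for 20 h at 37° C. NF-κB read as SEAP via QUANTI-Blue at OD620; IRF read as Lucia luminescence via QUANTI-Luc after 5 min. 100% activation set by 100 μM cGAMP, baseline by DMSO.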

[2] = test system: NF-κB pathway, THP1-Dual™ cells; assay: STING reporter assay in THP1-Dual cells, NF-κB pathway (SEAP, QUANTI-Blue); type: cell-based, human; details: THP1-Dual cells, 10% human plasma, 20 hours, SEAP, 100% activation = 100 μM cGAMP, read-out: NFkB (EC50 μM)
Summary of the method: as §1

| Structure (SMILES) | EC50 [1] [µM] | EC50 [2] [µM] | EC50 ([1]; Homo sapiens, THP1-Dual, 20 h) [µM] | EC50 ([2]; Homo sapiens, THP1-Dual, 20 h) [µM] |
| --- | --- | --- | --- | --- |
| CNc1nn2cccnc2c1C(=O)NCc1cc2cc(Cl)cc(C(=O)OC)c2o1 [Example 64, Methyl 5-chloro-2-((2-(methylamino)pyrazolo[1,5-a]pyrimidine-3-carboxamido)methyl)benzofuran-7-carboxylate] | – | – | 68 | > 100 |
| COC(=O)c1cc(Cl)cc2cc(CNC(=O)c3cncn(C)c3=O)oc12 [Example 65, Methyl 5-chloro-2-((1-methyl-6-oxo-1,6-dihydropyrimidine-5-carboxamido)methyl)benzofuran-7-carboxylate] | – | – | 3 | 3.1 |
| CCn1cncc(C(=O)NCc2cc3cc(Cl)cc(C(=O)OC)c3o2)c1=O [Example 66, Methyl 5-chloro-2-((1-ethyl-6-oxo-1,6-dihydropyrimidine-5-carboxamido)methyl)benzofuran-7-carboxylate] | – | – | 28 | 33 |
| COC(=O)c1cc(Cl)cc2cc(CNC(=O)c3cncc4[nH]cnc34)oc12 [Example 68, Methyl 2-((3H-imidazo[4,5-c]pyridine-7-carboxamido)methyl)-5-chlorobenzofuran-7-carboxylate] | – | – | 1.7 | 2.1 |
| CCOc1ncncc1C(=O)NCc1cc2cc(Cl)cc(C(=O)OC)c2o1 [Example 74, Methyl 5-chloro-2-((4-ethoxypyrimidine-5-carboxamido)methyl)benzofuran-7-carboxylate] | – | – | 3.3 | 3.5 |
| COC(=O)c1cc(Cl)cc2cc(Cn3ccc4ncncc4c3=O)oc12 [Example 75, Methyl 5-chloro-2-((5-oxopyrido[4,3-d]pyrimidin-6(5H)-yl)methyl)benzofuran-7-carboxylate] | – | – | 22 | 37 |
| COC(=O)c1cc(Cl)cc2cc(Cn3cnc4ccncc4c3=O)oc12 [Example 76, Methyl 5-chloro-2-((4-oxopyrido[4,3-d]pyrimidin-3(4H)-yl)methyl)benzofuran-7-carboxylate] | – | – | 3 | 4.1 |
| COC(=O)c1cc(Cl)cc2cc(CN3CCc4ccncc4C3=O)oc12 [Example 77, Methyl 5-chloro-2-((1-oxo-3,4-dihydro-2,7-naphthyridin-2(1H)-yl)methyl)benzofuran-7-carboxylate] | – | – | 5.5 | 6.3 |
| COC(=O)c1cc(Cl)cc2cc(Cn3ccc4ccncc4c3=O)oc12 [Example 78, Methyl 5-chloro-2-((1-oxo-2,7-naphthyridin-2(1H)-yl)methyl)benzofuran-7-carboxylate] | – | – | 3.4 | 3.7 |
| COC(=O)c1cc(Br)cc2cc(CNC(=O)c3cnn4cccnc34)oc12 [Example 80, Methyl 5-bromo-2-((pyrazolo[1,5-a]pyrimidine-3-carboxamido)methyl)benzofuran-7-carboxylate] | – | – | 0.8 | 1.1 |
| COC(=O)c1cc(Br)cc2cc(CN3CCc4ccncc4C3=O)oc12 [Example 81, Methyl 5-bromo-2-((1-oxo-3,4-dihydro-2,7-naphthyridin-2(1H)-yl)methyl)benzofuran-7-carboxylate] | – | – | 16 | 22 |
| COC(=O)c1cc(Br)cc2cc(CN3Cc4ccncc4C3=O)oc12 [Example 82, Methyl 5-bromo-2-((3-oxo-1,3-dihydro-2H-pyrrolo[3,4-c]pyridin-2-yl)methyl)benzofuran-7-carboxylate] | – | – | 27 | 20 |
| COC(=O)c1cc(Br)cc2cc(CN3Cc4ncncc4C3=O)oc12 [Example 83, Methyl 5-bromo-2-((5-oxo-5,7-dihydro-6H-pyrrolo[3,4-d]pyrimidin-6-yl)methyl)benzofuran-7-carboxylate] | – | – | 37 | 48 |
| COC(=O)Cc1cc(Br)cc2cc(CNC(=O)c3cnn4cccnc34)oc12 [Example 84, Methyl 2-(5-bromo-2-((pyrazolo[1,5-a]pyrimidine-3-carboxamido)methyl)benzofuran-7-yl)acetate] | – | – | 30 | 27 |
| COC(=O)c1cc(C)cc2cc(Cn3ccc4ccncc4c3=O)oc12 [Example 85, Methyl 5-methyl-2-((1-oxo-2,7-naphthyridin-2(1H)-yl)methyl)benzofuran-7-carboxylate] | – | – | 3.5 | 3.6 |
| COC(=O)c1cc(C)cc2cc(CN3Cc4ccncc4C3=O)oc12 [Example 88, Methyl 5-methyl-2-((3-oxo-1,3-dihydro-2H-pyrrolo[3,4-c]pyridin-2-yl)methyl)benzofuran-7-carboxylate] | – | – | 21 | 20 |
| COC(=O)c1cc(C)cc2cc(CNC(=O)c3cnn4cc(C)cnc34)oc12 [Example 90, Methyl 5-methyl-2-((6-methylpyrazolo[1,5-a]pyrimidine-3-carboxamido)methyl)benzofuran-7-carboxylate] | – | – | 2.2 | 3 |
| COC(=O)c1cc(C)cc2cc(CNC(=O)c3cncc4[nH]cnc34)oc12 [Example 91, Methyl 2-((3H-imidazo[4,5-c]pyridine-7-carboxamido)methyl)-5-methylbenzofuran-7-carboxylate] | – | – | 1.2 | 1.5 |
| COC(=O)c1cc(C)cc2cc(CNC(=O)c3cncc4cccnc34)oc12 [Example 92, methyl 2-((1,6-naphthyridine-8-carboxamido)methyl)-5-methylbenzofuran-7-carboxylate] | – | – | 0.8 | 0.81 |
| COC(=O)c1cc(C)cc2cc(CNC(=O)c3c(N)nn4cccnc34)oc12 [Example 93, Methyl 2-((2-aminopyrazolo[1,5-a]pyrimidine-3-carboxamido)methyl)-5-methylbenzofuran-7-carboxylate] | – | – | 3.7 | 6 |

Other lines, results leading:

| EC50 [1] [µM] | EC50 [2] [µM] | EC50 ([1]; Homo sapiens, THP1-Dual, 20 h) [µM] | EC50 ([2]; Homo sapiens, THP1-Dual, 20 h) [µM] | Structure (SMILES) |
| --- | --- | --- | --- | --- |
| 21 | 21 | – | – | COC(=O)c1cc(Cl)cc2cc(CNC(=O)c3cncc(Cl)n3)oc12 [Example 61, Methyl 5-chloro-2-((6-chloropyrazine-2-carboxamido)methyl) benzofuran-7-carboxylate] |
| – | – | 42 | 46 | COC(=O)c1cc(Cl)cc2cc(CNC(=O)c3cncc(Br)n3)oc12 [Example 62, Methyl 2-((6-bromopyrazine-2-carboxamido)methyl)-5-chlorobenzofuran-7-carboxylate] |
| – | – | 10 | 16 | COC(=O)c1cc(Cl)cc2cc(CNC(=O)c3c(N)nn4cccnc34)oc12 [Example 63, Methyl 2-((2-aminopyrazolo[1,5-a]pyrimidine-3-carboxamido)methyl)-5-chlorobenzofuran-7-carboxylate] |
| – | – | 20 | 32 | CCCn1cncc(C(=O)NCc2cc3cc(Cl)cc(C(=O)OC)c3o2)c1=O [Example 67, Methyl 5-chloro-2-((1-propyl-6-oxo-1,6-dihydropyrimidine-5-carboxamido)methyl)benzofuran-7-carboxylate] |
| – | – | 1.3 | 2.3 | COC(=O)c1cc(Cl)cc2cc(CNC(=O)c3cncc4c3ncn4C)oc12 [Example 69, Methyl 5-chloro-2-((3-methyl-3H-imidazo[4,5-c]pyridine-7-carboxamido)methyl)benzofuran-7-carboxylate] |
| – | – | 24 | > 100 | COC(=O)c1cc(Cl)cc2cc(CNC(=O)c3cncc4ncn(C)c34)oc12 [Example 70, Methyl 5-chloro-2-((1-methyl-1H-imidazo[4,5-c]pyridine-7-carboxamido)methyl)benzofuran-7-carboxylate] |
| – | – | 24 | 33 | COC(=O)c1cc(Cl)cc2cc(CNC(=O)c3cncc4[nH]c(C)nc34)oc12 [Example 71, Methyl 5-chloro-2-((2-methyl-3H-imidazo[4,5-c]pyridine-7-carboxamido)methyl)benzofuran-7-carboxylate] |
| – | – | 1.2 | 17 | COC(=O)c1cc(Cl)cc2cc(CNC(=O)c3cncc4scnc34)oc12 [Example 72, Methyl 5-chloro-2-((thiazolo[5,4-c]pyridine-7-carboxamido)methyl)benzofuran-7-carboxylate] |
| – | – | 2.1 | 2.6 | COC(=O)c1cc(Cl)cc2cc(CNC(=O)c3cncnc3OC)oc12 [Example 73, Methyl 5-chloro-2-((4-methoxypyrimidine-5-carboxamido)methyl)benzofuran-7-carboxylate] |
| – | – | 1.5 | 1.7 | COC(=O)c1cc(Cl)cc2cc([C@H](C)NC(=O)c3cnn4cccnc34)oc12 [Example 79, Methyl (S)-5-chloro-2-(1-(pyrazolo[1,5-a]pyrimidine-3-carboxamido)ethyl)benzofuran-7-carboxylate] |
| – | – | 1.7 | 1.8 | COC(=O)c1cc(C)cc2cc(Cn3cnc4ccncc4c3=O)oc12 [Example 86, Methyl 5-methyl-2-((4-oxopyrido[4,3-d]pyrimidin-3(4H)-yl)methyl)benzofuran-7-carboxylate] |
| – | – | 5.5 | 5.8 | COC(=O)c1cc(C)cc2cc(CN3CCc4ccncc4C3=O)oc12 [Example 87, Methyl 5-methyl-2-((1-oxo-3,4-dihydro-2,7-naphthyridin-2(1H)-yl)methyl)benzofuran-7-carboxylate] |
| – | – | 0.21 | 0.19 | COC(=O)c1cc(C)cc2cc(CNC(=O)c3cnn4cccnc34)oc12 [Example 89, Methyl 5-methyl-2-((pyrazolo[1,5-a]pyrimidine-3-carboxamido)methyl)benzofuran-7-carboxylate] |
